Where no end group is shown, it is not given here.

For one data set, the system named is anesthetized dogs. The experiment in a line: Heart, blood flow, blood glucose and lipolysis in anesthetized dogs. The class given is in vivo, dog. An excerpt: [Gln^4 ]-neurotensin ([Gln]^4 -NT) has also been studied on the heart and on the blood from in subcutaneous adipose tissue, skin, and small intestine in anesthetized dogs. In addition, its possible action has been investigated on blood glucose concentration and lypolysis in subcutaneous adipose tissue.

The subject of data set [1] is rats. Description: Hypotensive Assay. The class given is in vivo, rat. The note with it: rats anesthetized with pentobarbital; 50 picomoles/100 g body weight via tail vein.
Procedure: Systemic blood pressure was measured with a Hewlett-Packard recorder and pressure transducer (preamplifier 8805 B, recorder 7782 A, transducer 267 BC) following cannulations of the carotid artery in rats weighing 200-250 g and anesthetized with pentobarbital (50 mg/kg). The test samples were dissolved in 0.85% saline and administered via a tail vein.
Data set [2] relates to rats. Description: Hyperglycemic Assay. The note with it: 15 minutes after injection. The format is in vivo, rat.
Procedure: Rats weighing 100-125 g were anesthetized with pentobarbital (50 mg/kg). The test samples were dissolved in 0.85% saline and administered via a tail vein. Each animal was killed by decapitation 15 minutes after injection and plasma glucose levels were measured by the method of Ceriotti and Frank. […] The plasma glucose values are given in mg %.
The next data set relates to guinea pig ileum. Description: Contraction of Guinea Pig Ileum. The note with it: ileum segments in Tyrode's solution at 37°.
A further data set relates to rabbit anti-NT serum. The experiment in a line: Radioimmunoassay. The format is binding. The note with it: I^125 -NT, two rabbit antisera, pH 7.4, 4° C.
Data set [3] has as its system canine fundic, antral and intestinal pouches. Description: Spontaneous motor activity in isolated canine fundic, antral and intestinal pouches. Conditions: intravenous infusion for 30 min. The class given is in vivo, dog. How it is done: The action of [Gln^4 ]-neurotensin was tested on the spontaneous motor activity in isolated canine fundic, antral and intestinal pouches. All of these pouches had been prepared more than 6 months prior to the testing. […] The gastro-intestinal tract appears to be the principal target organ for [Gln^4 ]-neurotensin, and is a basis for clinical use of [Gln^4 ]-neurotensin in patients having diseases of gastroenterology (S. Andersson, M.D. S. Rosell M.D., U. Hjelmquist M.D., D. Chang Ph.D. and K. Folkers Ph.D., Gastroenterology, in press).

The nature of data set [4]: Simulation of isolation steps: stability in acetone 1 N HCl at 37° C. The format is physicochemical. The method, then:
Toward simulation of these isolation steps, both in terms of temperature and the concentration of hydrochloric acid, 2 mg of synthetic [Gln^4 ]-neurotensin was dissolved in a mixture of acetone 1 N HCl (100:3 v/v), and this solution was maintained at 37° C. for 12 hours which can be presumed to be less than the time of the original large scale operation at the New England Enzyme Center in Boston. An aliquot of the solution was taken for thin layer electrophoresis on cellulose plates (160 microns, Eastman Chromatographic sheet) at 500 volts in pyridine-acetate buffer, pH 6.5. The major spot on the plate corresponded to [Gln^4 ]-neurotensin.However, a new and minor spot moving toward the cathode was present which had the same TLC retention time as neurotensin. The solution was allowed to stand overnight, and it was then maintained again at 37° for a second 12-hr period. […] The minor spot had increased during the second 12-hr period. The remaining solution was concentrated under reduced pressure at room temperature to remove acetone, and the aqueous residue was then lyophilized. The residual white powder was subjected to thin layer electrophoresis on cellulose plates and pyridine acetate buffer at pH 6.5 and at 500 volts. […] The Rf values were identical with those of an authentic specimen of [Gln^4 ]-neurotensin as follows: Rf^1 0.25; Rf^2 0.89; Rf^3 0.50; Rf^4 0.42; Rf^5 0.21; and Rf^6 0.98.
In the second experiment 10 mg of pure [Gln^4 ]-neurotensin was dissolved in a mixture of acetone 1 N HCl (100:3 v/v), and the solution was maintained at 37° C. for 27 hours to simulate again the steps of isolation which are being critiqued. This time, 3 spots were observed on electrophoretic analysis of an aliquot of the solution which had been maintained at 37° for 27 hrs. Preparative thin layer electrophoresis, extraction, and workup yielded 4.2 mg of recovered [Gln^4 ]-neurotensin and 4.3 mg of neurotensin. The third and much weaker spot was due to only a trace amount of another peptide which presumably resulted from further hydrolysis. […] The fact that in these two experiments, not all of the [Gln^4 ]-neurotensin was converted to neurotensin is relatively unimportant, because these experiments on hydrolysis of the pure [Gln^4 ]-neurotensin only simulates the conditions of processing of 20-45 kg of hypothalamic tissue.

Setting [5] is: 10 mg in acetone 1 N HCl (100:3 v/v), 27 hours.

Procedure for guinea pig ileum: Freshly dissected segments of guinea pig ileum were suspended in a 40 ml bath which was maintained at 37° and serated with a mixture of O2 --CO2 (95:5), and containing Tyrode's solution.
Procedure for rabbit anti-NT serum: Two antisera were used in these assays. One has been characterized as being directed solely toward the COOH-terminus, and the other requires most of the molecule.
The radioimmunoassay method used was an equilibrium system carried out at pH 7.4 in 10 × 75 mm disposable flint glass tubes and employing PBS-gel as diluent. […] The mixtures were allowed to stand at 4° C. for 18-24 hours. The "bound" (B) and "free" (F) trace were separated at 4° C. by the rapid addition of 1.0 ml of a 1:4 dilution of a stock suspension of charcoal (2.5%) and dextran T-70 (0.25%) in PBS to each tube. The tubes were immediately centrifuged for 20 min at 2000 rpm (PRJ-Universal), and the supernatant fluids were decanted into new tubes. […] "Damage" was usually 2-4% and using antisera at a final dilution of 1:10,000 gave 50-70% binding. All unknowns were assayed in duplicate at three dilutions so as to span the sensitive portion of the curve. The results were obtained by averaging the concentrations determined at each dilution provided that they agreed within 20%.

Take “Substance P (RPKPQQFFGLM-NH2; UniProt P20366 58-68, looked up) [another polypeptide extracted from the hypothalamus, reference compound]”: the “action in the peripheral vasculature” value in the data set with anesthetized dogs (anesthetized dogs) was “hypotension and pronounced vasodilation and no vasoconstrictor or metabolic actions”.

Take `CC[C@H](C)[C@H](NC(=O)[C@H](Cc1ccc(O)cc1)NC(=O)[C@@H]1CCCN1C(=O)[C@H](CCCNC(=N)N)NC(=O)[C@H](CCCNC(=N)N)NC(=O)[C@@H]1CCCN1C(=O)[C@H](CCCCN)NC(=O)[C@H](CC(N)=O)NC(=O)[C@H](CCC(N)=O)NC(=O)[C@H](Cc1ccc(O)cc1)NC(=O)[C@H](CC(C)C)NC(=O)[C@@H]1CCC(=O)N1)C(=O)N[C@@H](CC(C)C)C(=O)O` [[Gln^4]-NT]: in the data set on rats [1], the “-ΔSystemic Blood Pressure” value was 42 ± 8 mm HG. In the data set on rats [2] (25 picomoles/100 g body weight via tail vein), the “Hyperglycemic Assay, plasma glucose” value was 15±5 mg %. The “Hyperglycemic Assay, plasma glucose” value with rats [2] (50 picomoles/100 g body weight via tail vein) worked out at 34±4 mg %. Also, the “Hyperglycemic Assay, plasma glucose” value with rats [2] (100 picomoles/100 g body weight via tail vein) is 116 mg %. In the data set on guinea pig ileum, the “Contraction of Guinea Pig Ileum, potency” value was “about equivalent potency”. Also, the “% Cross Ractivity (Ab #4, #6)” value in the data set with rabbit anti-NT serum is reported as 90-100%. Moreover, in the data set with anesthetized dogs (anesthetized dogs), the “action in the peripheral vasculature” value is given as “delayed vasoconstriction which is prominent is subcutaneous adipose tissue”, the blood glucose concentration entry was “increased blood glucose concentration” and the cardiac action result was “no cardiac action”. For the same compound, the “action in the peripheral vasculature” value in the data set on anesthetized dogs (anesthetized dogs, listed as [Gln]^4 -NT) was “both vasodilator and vasoconstrictor actions”. For the same compound, the “lipid metabolism in adipose tissue” value in the data set with anesthetized dogs (subcutaneous adipose tissue) is reported as “no evidence of a change in lipid metabolism in adipose tissue”. Besides, in data set [3], the “dose inducing significant motor inhibition, vagally innervated antral pouches” value came to 6.3 ng/kg/min and the “dose inhibiting motor activity, vagally denervated fundic pouches” value is “above 25 ng × kg^-1 × min^-1”. The “recovered [Gln^4 ]-neurotensin” value in data set [4] (2 mg in acetone 1 N HCl (100:3 v/v), two 12-hr periods) is listed as “About 1 mg”. For the same compound, in data set [4] (setting [5]), the neurotensin formed was 4.3 mg and the “recovered [Gln^4 ]-neurotensin” value is reported as 4.2 mg. Further, the “stability under the isolation conditions” value in data set [4] (acetone 1 N HCl (100:3 v/v)) is reported as “hydrolyzed or converted to neurotensin”.

Values taken from patent US4110321A, “Synthetic tridecapeptide [Gln^4 ]-neurotensin having hormonal activity” (priority 1977, dated 1978).
